Reference: US11730817B2, “Pro-cyclic dinucleotides and pro-cyclic dinucleotide conjugates for cytokine induction” (INVIVOGEN, priority 2017, dated 2023)

Target: STING (Homo sapiens, UniProt Q86WV6, G230A/H232R/R293Q/R71H)
Assay: ISG54 (IRF pathway) reporter assay in THP1-Dual cells
Details: for EC50 rank order (lipid chain length): FIG. 6, human or murine reporter cell

STING, sequence (Q86WV6 whole entry R71H/G230A/H232R/R293Q): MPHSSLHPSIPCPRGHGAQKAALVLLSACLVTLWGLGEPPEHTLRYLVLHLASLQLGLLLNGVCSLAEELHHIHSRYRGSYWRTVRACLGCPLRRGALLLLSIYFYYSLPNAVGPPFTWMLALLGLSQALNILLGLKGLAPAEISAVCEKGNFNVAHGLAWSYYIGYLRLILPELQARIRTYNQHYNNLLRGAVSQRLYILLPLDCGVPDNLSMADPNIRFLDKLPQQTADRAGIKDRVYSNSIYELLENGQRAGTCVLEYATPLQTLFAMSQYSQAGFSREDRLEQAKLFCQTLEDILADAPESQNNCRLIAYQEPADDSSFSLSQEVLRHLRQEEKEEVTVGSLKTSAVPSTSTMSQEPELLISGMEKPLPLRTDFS

Nc1ncnc2c1ncn2[C@@H]1O[C@@H]2COP(=O)(S)O[C@H]3C[C@H](n4cnc5c(=O)[nH]cnc54)O[C@@H]3COP(=O)(O)O[C@H]2[C@H]1F (stereo partly shown) [CL797, reference compound]
EC50: 8.15 µM | Fold ISG induction vs unstimulated @10 μM (THP1-Dual cells): 181 fold

CC(C)[C@H](N)C(=O)N[C@@H](C)C(=O)Nc1ccc(CSP2(=O)OC[C@H]3O[C@@H](n4cnc5c(N)ncnc54)[C@H](F)[C@@H]3OP(=O)(O)OC[C@H]3O[C@@H](n4cnc5c(O)ncnc54)C[C@@H]3O2)cc1 (stereo partly shown) [CL819]
EC50 rank order (lipid chain length): EC50 (CL819=C2-CL797)=EC50 (CL797)

CCCC(=O)N[C@H](C(=O)N[C@@H](C)C(=O)Nc1ccc(CSP2(=O)OC[C@H]3O[C@@H](n4cnc5c(N)ncnc54)[C@H](F)[C@@H]3OP(=O)(O)OC[C@H]3O[C@@H](n4cnc5c(O)ncnc54)C[C@@H]3O2)cc1)C(C)C (stereo partly shown) [CL820]
EC50 rank order (lipid chain length): EC50 (CL820=C4-CL797)=EC50 (CL819=C2-CL797)=EC50 (CL797)

CC(C)[C@H](NC(=O)COCCOCCNC(=O)COCCOCCNC(=O)COCCOCCNC(=O)COCCOCCN)C(=O)N[C@H](C)C(=O)Nc1ccc(CSP2(=O)OC[C@H]3O[C@@H](n4cnc5c(N)ncnc54)[C@H](F)[C@@H]3OP(=O)(O)OC[C@H]3O[C@@H](n4cnc5c(O)ncnc54)C[C@@H]3O2)cc1 (stereo partly shown) [CL822]
Fold ISG induction vs unstimulated @10 μM (THP1-Dual cells): 29 fold

COC(=O)C1O[C@@H](Oc2ccc(CSP3(=O)OC[C@H]4O[C@@H](n5cnc6c(N)ncnc65)[C@H](F)[C@@H]4OP(=O)(O)OC[C@H]4O[C@@H](n5cnc6c(O)ncnc65)C[C@@H]4O3)cc2[N+](=O)[O-])C(OC(C)=O)C(OC(C)=O)[C@@H]1OC(C)=O (stereo partly shown) [CL831]
Fold ISG induction vs unstimulated @10 μM (THP1-Dual cells): 6 fold

CC(C)[C@H](NC(=O)CCCCCN1C(=O)C=CC1=O)C(=O)N[C@@H](C)C(=O)Nc1ccc(CSP2(=O)OC[C@H]3O[C@@H](n4cnc5c(N)ncnc54)[C@H](F)[C@@H]3OP(=O)(O)OC[C@H]3O[C@@H](n4cnc5c(O)ncnc54)C[C@@H]3O2)cc1 (stereo partly shown) [CL843]
Fold ISG induction vs unstimulated @10 μM (THP1-Dual cells): 16 fold

Nc1ncnc2c1ncn2[C@@H]1OC2COP(=O)(S)O[C@@H]3C(COP(=O)(O)O[C@H]2[C@H]1F)O[C@@H](n1cnc2c(=O)[nH]cnc21)[C@@H]3F (stereo partly shown) [CL845, reference compound]
EC50: 4.57 µM | Fold ISG induction vs unstimulated @10 μM (THP1-Dual cells): 227 fold

COC(=O)C1O[C@@H](Oc2ccc(CSP3(=O)OC[C@H]4O[C@@H](n5cnc6c(=O)[nH]cnc65)[C@H](F)[C@@H]4OP(=O)(O)OC[C@H]4O[C@@H](n5cnc6c(N)ncnc65)[C@H](F)[C@@H]4O3)cc2NC(=O)CCCCCN2C(=O)C=CC2=O)C(OC(C)=O)C(OC(C)=O)[C@@H]1OC(C)=O (stereo partly shown) [CL847]
Fold ISG induction vs unstimulated @10 μM (THP1-Dual cells): 132 fold

CC(C)[C@H](NC(=O)[C@@H](CN)N1C(=O)C=CC1=O)C(=O)N[C@@H](C)C(=O)Nc1ccc(CSP2(=O)OC[C@H]3O[C@@H](n4cnc5c(N)ncnc54)[C@H](F)[C@@H]3OP(=O)(S)OC[C@H]3O[C@@H](n4cnc5c(O)ncnc54)[C@H](F)[C@@H]3O2)cc1 (stereo partly shown) [CL874]
% activity (vs cGAMP): 297% | Fold ISG induction vs unstimulated @10 μM (THP1-Dual cells): 156 fold | ISG activity (THP1-Dual cells): retains full 15G activity
